Test results taken from US12281122B1, “PI3K inhibitors” (Cogent Biosciences, Inc., priority 2023, dated 2025).

Assays:
[1] = system: T47D (PI3Kα-H1047R) cell line; test: HTRF phospho-AKT(S473) cell assay in T47D cells; type: cell-based, human; conditions: Homo sapiens, 2 hours compound incubation
Outline: (§1)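 HTRF read-out of phospho-AKT(S473) in lysates gave IC50 values after 2 h compound exposure at 37° C. Dose series was 12 points at 1:3, topping at 5 μM for T47D and 10 μM for SKBR3. Only SKBR3 received 70 ng/ml PDGF-BB during the last 15 minutes.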

[2] = system: SKBR3 (PI3Kα-Wild Type) cell line; test: HTRF phospho-AKT(S473) cell assay in SKBR3 cells; type: cell-based, human; conditions: Homo sapiens, SK-BR-3, 2 hours compound incubation, PDGF-BB stimulated
Outline: as §1

[3] = HTRF phospho-AKT(S473), T47D (PI3Kα-H1047R) cells
[4] = HTRF phospho-AKT(S473), SKBR3 (PI3Kα-Wild Type) cells
[5] = T47D (PI3Kα-H1047R) cells, HTRF phospho-AKT(S473)
[6] = SKBR3 (PI3Kα-Wild Type) cells, HTRF phospho-AKT(S473)

IC50 [1, 3] [nM]	IC50 [2, 4] [nM]	IC50 [1, 5] [nM]	IC50 [2, 6] [nM]	SMILES	further results
250 to 500	≥ 5000			Cc1cc([C@@H](C)Nc2ccc(Cl)nc2C(=O)NS(C)(=O)=O)c2nc(N3CCC(n4nc(C)cc4F)CC3)n(C)c(=O)c2c1 [Compound 490, (R)-6-chloro-3-((1-(2-(4-(5-fluoro-3-methyl-1H-pyrazol-1-yl)piperidin-1-yl)-3,6-dimethyl-4-oxo-3,4-dihydroquinazolin-8-yl)ethyl)amino)-N-(methylsulfonyl) picolinamide]	
250 to 500	1000 to 5000			Cc1cc([C@@H](C)Nc2ccc(Cl)nc2C(=O)NS(C)(=O)=O)c2nc(N3C[C@@H]4[C@H](C3)[C@H]4c3cc(C)ncc3F)n(C)c(=O)c2c1 [Compound 495, 6-chloro-3-(((R)-1-(2-((1R,5S,6S)-6-(5-fluoro-2-methylpyridin-4-yl)-3-azabicyclo[3.1.0]hexan-3-yl)-3,6-dimethyl-4-oxo-3,4-dihydroquinazolin-8-yl)ethyl)amino)-N-(methylsulfonyl) picolinamide]	
250 to 500	≥ 5000			Cc1cc([C@@H](C)Nc2ccc(Cl)nc2C(=O)NS(C)(=O)=O)c2nc(N3C[C@H]4C[C@@H]3CN4c3ccc(F)cn3)n(C)c(=O)c2c1 [Compound 602, 6-chloro-3-(((R)-1-(2-((1R,4R)-5-(5-fluoropyridin-2-yl)-2,5-diazabicyclo [2.2.1]heptan-2-yl)-3,6-dimethyl-4-oxo-3,4-dihydroquinazolin-8-yl)ethyl)amino)-N-(methylsulfonyl) picolinamide]	
500 to 1000	≥ 5000			Cc1cc([C@@H](C)Nc2ccc(Cl)nc2C(=O)NS(C)(=O)=O)c2nc([C@H]3[C@@H]4CN(c5ncc(F)cn5)C[C@@H]43)n(C)c(=O)c2c1 [Compound 827, 6-chloro-3-(((R)-1-(2-((1R,5S,6r)-3-(5-fluoropyrimidin-2-yl)-3-azabicyclo[3.1.0]hexan-6-yl)-3,6-dimethyl-4-oxo-3,4-dihydroquinazolin-8-yl)ethyl)amino)-N-(methylsulfonyl) picolinamide]	
< 250	≥ 5000			COc1ccc([C@H]2[C@@H]3CN(c4nc5c([C@@H](C)Nc6ccc(Cl)nc6C(=O)NS(C)(=O)=O)cc(C)cc5c(=O)n4C)C[C@@H]32)cn1 [Compound 610, 6-chloro-3-(((R)-1-(2-((1R,5S,6S)-6-(6-methoxypyridin-3-yl)-3-azabicyclo[3.1.0]hexan-3-yl)-3,6-dimethyl-4-oxo-3,4-dihydroquinazolin-8-yl)ethyl)amino)-N-(methylsulfonyl) picolinamide]	
		< 250	1000 to 5000	Cc1cc([C@@H](C)Nc2ccc(Cl)nc2C(=O)NS(C)(=O)=O)c2nc(N3C[C@@H]4[C@H](C3)[C@H]4c3cnc(C)cn3)n(C)c(=O)c2c1 [Compound 394, 6-chloro-3-(((R)-1-(3,6-dimethyl-2-((1R,5S,6R)-6-(5-methylpyrazin-2-yl)-3-azabicyclo[3.1.0]hexan-3-yl)-4-oxo-3,4-dihydroquinazolin-8-yl)ethyl)amino)-N-(methylsulfonyl) picolinamide]	
		< 250	1000 to 5000	Cc1cc([C@@H](C)Nc2ccc(Cl)nc2C(=O)NS(C)(=O)=O)c2nc(N3C[C@@H]4[C@H](C3)[C@H]4c3cnccn3)n(C)c(=O)c2c1 [Compound 439, 6-chloro-3-(((R)-1-(3,6-dimethyl-4-oxo-2-((1R,5S,6R)-6-(pyrazin-2-yl)-3-azabicyclo[3.1.0]hexan-3-yl)-3,4-dihydroquinazolin-8-yl)ethyl)amino)-N-(methylsulfonyl) picolinamide]	
< 250	1000 to 5000			Cc1cc([C@@H](C)Nc2ccc(Cl)nc2C(=O)NS(C)(=O)=O)c2nc(N3CC[C@@H](Oc4cnc(C)cn4)C3)n(C)c(=O)c2c1 [Compound 672, 6-chloro-3-(((R)-1-(3,6-dimethyl-2-((R)-3-((5-methylpyrazin-2-yl)oxy)pyrrolidin-1-yl)-4-oxo-3,4-dihydroquinazolin-8-yl)ethyl)amino)-N-(methylsulfonyl) picolinamide]	
		250 to 500	≥ 5000	Cc1cc([C@@H](C)Nc2ccc(Cl)nc2C(=O)NS(C)(=O)=O)c2nc(N3CCC[C@H](Oc4cnc(C)cn4)C3)n(C)c(=O)c2c1 [Compound 383, 6-chloro-3-(((R)-1-(3,6-dimethyl-2-((S)-3-((5-methylpyrazin-2-yl)oxy)piperidin-1-yl)-4-oxo-3,4-dihydroquinazolin-8-yl)ethyl)amino)-N-(methylsulfonyl) picolinamide]	

More lines, now with the values behind:

SMILES	IC50 [1, 3] [nM]	IC50 [2, 4] [nM]	IC50 [1, 5] [nM]	IC50 [2, 6] [nM]	further results
[2H]C([2H])([2H])n1ncc2cc(-c3nc4c([C@@H](C)Nc5ccc(Cl)nc5C(=O)NS(C)(=O)=O)cc(C)cc4c(=O)n3C)ccc21 [Compound 818, (R)-6-chloro-3-((1-(3,6-dimethyl-2-(1-(methyl-d3)-1H-indazol-5-yl)-4-oxo-3,4-dihydroquinazolin-8-yl)ethyl)amino)-N-(methylsulfonyl) picolinamide]	< 250	1000 to 5000			
Cc1cc([C@@H](C)Nc2ccc(Cl)nc2C(=O)NS(C)(=O)=O)c2nc(-c3ccc4nn(C)cc4n3)n(C)c(=O)c2c1 [Compound 841, (R)-6-chloro-3-((1-(3,6-dimethyl-2-(2-methyl-2H-pyrazolo [4,3-b]pyridin-5-yl)-4-oxo-3,4-dihydroquinazolin-8-yl)ethyl)amino)-N-(methylsulfonyl) picolinamide]					IC50 ([1]; T47D (PI3Kα-H1047R) cell line, phospho-AKT(S473) HTRF): 250 to 500 nM; IC50 ([2]; SKBR3 (PI3Kα-Wild Type) cell line, phospho-AKT(S473) HTRF): 1000 to 5000 nM
CO[C@H]1C[C@@H](S(=O)(=O)NC(=O)c2nc(Cl)ccc2N[C@H](C)c2cc(C)cc3c(=O)n(C)c(N4Cc5ccc(F)cc5C4)nc23)C1 [Compound 378, 6-chloro-3-(((R)-1-(2-(5-fluoroisoindolin-2-yl)-3,6-dimethyl-4-oxo-3,4-dihydroquinazolin-8-yl)ethyl)amino)-N-(((1s,3S)-3-methoxycyclobutyl)sulfonyl)picolinamide]			250 to 500	≥ 5000	
Cc1cc([C@@H](C)Nc2ccc(Cl)nc2C(=O)NS(C)(=O)=O)c2nc(N3CCC4(CCCN(c5ccn(C)n5)C4)C3)n(C)c(=O)c2c1 (stereo partly drawn) [Compound 708, 6-chloro-3-(((1R)-1-(3,6-dimethyl-2-(7-(1-methyl-1H-pyrazol-3-yl)-2,7-diazaspiro[4.5]decan-2-yl)-4-oxo-3,4-dihydroquinazolin-8-yl)ethyl)amino)-N-(methylsulfonyl) picolinamide]	250 to 500	≥ 5000			
Cc1cc([C@@H](C)Nc2ccc(Cl)nc2C(=O)NS(C)(=O)=O)c2nc(-c3ccc(OCCN4CCOCC4)cc3)n(C)c(=O)c2c1 [Compound 793, (R)-6-chloro-3-((1-(3,6-dimethyl-2-(4-(2-morpholinoethoxy)phenyl)-4-oxo-3,4-dihydroquinazolin-8-yl)ethyl)amino)-N-(methylsulfonyl) picolinamide]	< 250	≥ 5000			
Cc1cc([C@@H](C)Nc2ccc(Cl)nc2C(=O)NS(C)(=O)=O)c2nc(N3CC[C@H](c4ccn(C)n4)CC3(C)C)n(C)c(=O)c2c1 (relative stereo) [Compound 323, 6-chloro-3-(((R)-1-(2-((R*)-2,2-dimethyl-4-(1-methyl-1H-pyrazol-3-yl)piperidin-1-yl)-3,6-dimethyl-4-oxo-3,4-dihydroquinazolin-8-yl)ethyl)amino)-N-(methylsulfonyl) picolinamide]			250 to 500	≥ 5000	
Cc1cc([C@@H](C)Nc2ccc(Cl)nc2C(=O)NS(C)(=O)=O)c2nc(C3CCN(c4ccccc4)CC3)n(C)c(=O)c2c1 [Compound 831, (R)-6-chloro-3-((1-(3,6-dimethyl-4-oxo-2-(1-phenylpiperidin-4-yl)-3,4-dihydroquinazolin-8-yl)ethyl)amino)-N-(methylsulfonyl) picolinamide]	250 to 500	1000 to 5000			
COc1ccccc1-n1ncc2c1CN(c1nc3c([C@@H](C)Nc4ccc(Cl)nc4C(=O)NS(C)(=O)=O)cc(C)cc3c(=O)n1C)C2 [Compound 326, (R)-6-chloro-3-((1-(2-(1-(2-methoxyphenyl)-4,6-dihydropyrrolo[3,4-c]pyrazol-5(1H)-yl)-3,6-dimethyl-4-oxo-3,4-dihydroquinazolin-8-yl)ethyl)amino)-N-(methylsulfonyl) picolinamide]			< 250	1000 to 5000	
Cc1cc([C@@H](C)Nc2ccc(Cl)nc2C(=O)NS(C)(=O)=O)c2nc(N3Cc4cn(-c5ccncc5)nc4C3)n(C)c(=O)c2c1 [Compound 192, (R)-6-chloro-3-((1-(3,6-dimethyl-4-oxo-2-(2-(pyridin-4-yl)-2,6-dihydropyrrolo[3,4-c]pyrazol-5(4H)-yl)-3,4-dihydroquinazolin-8-yl)ethyl)amino)-N-(methylsulfonyl) picolinamide]			< 250	1000 to 5000	
Cc1cc([C@@H](C)Nc2ccc(Cl)nc2C(=O)NS(C)(=O)=O)c2nc(N3CCC(c4nc(C)n(C)n4)CC3)n(C)c(=O)c2c1 [Compound 459, (R)-6-chloro-3-((1-(2-(4-(1,5-dimethyl-1H-1,2,4-triazol-3-yl)piperidin-1-yl)-3,6-dimethyl-4-oxo-3,4-dihydroquinazolin-8-yl)ethyl)amino)-N-(methylsulfonyl) picolinamide]	< 250	≥ 5000			
